Assay results from PubChem BioAssay (NCI).
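48-hour exposure; five concentrations; linearly interpolated endpoints. GI50 is the concentration that inhibits growth by half. TGI is the concentration that stops growth completely.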

What was measured:
Assay in all cases: NCI tumour cell line growth inhibition, 48 h
U251 CNS = system: U251 CNS
SF-268 CNS = system: SF-268 CNS
CCRF-CEM leukemia = system: CCRF-CEM leukemia
MCF7 breast = system: MCF7 breast
NCI-H226 lung = system: NCI-H226 lung
EKVX NSCLC = system: EKVX NSCLC
SW-620 colon = system: SW-620 colon
CAKI-1 renal = system: CAKI-1 renal

Row | SMILES | GI50 (U251 CNS) [µM] | TGI (U251 CNS) [µM] | GI50 (SF-268 CNS) [µM] | TGI (SF-268 CNS) [µM] | GI50 (CCRF-CEM leukemia) [µM] | TGI (CCRF-CEM leukemia) [µM] | GI50 (MCF7 breast) [µM] | TGI (MCF7 breast) [µM] | GI50 (NCI-H226 lung) [µM] | TGI (NCI-H226 lung) [µM] | GI50 (EKVX NSCLC) [µM] | TGI (EKVX NSCLC) [µM] | GI50 (SW-620 colon) [µM] | TGI (SW-620 colon) [µM] | GI50 (CAKI-1 renal) [µM] | TGI (CAKI-1 renal) [µM]
1 | CN(C)c1ccc(/C=N/NC(N)=S)nc1 | 3.99 | > 100 | 2.22 | 28.2 | 2.82 | 21.8 | 1.64 | > 100 | 3.54 | 52.7 | 3.09 | > 100 | 3.14 | > 100 | – | –
2 | Cc1c(Cn2c(C)nc3c(C(=O)O)cc(N4CCOCC4)cc32)cccc1C(F)(F)F | 49.5 | > 100 | 56 | > 100 | 44.3 | > 100 | 42.7 | > 100 | 67.2 | > 100 | – | – | 45.5 | > 100 | 7.44 | > 100
3 | COC(=O)/C=C1/SC(=Nc2cccc(Cl)c2)N(CCc2c[nH]c3ccc(O)cc23)C1=O | 1.76 | 3.51 | 1.76 | 4.47 | 0.931 | 5.27 | 1.69 | 4.73 | 1.65 | 3.08 | 2.19 | 5.51 | – | – | 1.83 | 3.67
4 | OC1CC2CCC(C1)N2CCCN1c2ccccc2Sc2ccc(Cl)cc21 (stereo not drawn) | – | 3.45 | – | 6.23 | – | 4.23 | – | 3.3 | – | 15.2 | – | 10.1 | – | 5.77 | – | 9.47
5 | O=C(c1c(F)c(F)c(F)c(F)c1F)c1c(F)c(F)c(F)c(F)c1F | – | 2.41 | – | 7.8 | – | 1.15 | – | 2.58 | – | 8.96 | – | 4.06 | – | 60.6 | – | 1.69
6 | CN1C(=O)CCC(N2C(=O)c3cccc(NCCOCCOCCNC(=O)c4cc5c(o4)C(=O)c4ccccc4C5=O)c3C2=O)C1=O (stereo not drawn) | 2.4 | 6.1 | 2.38 | 6.79 | 3.75 | 24.4 | 1.46 | 3.54 | 1.67 | 3.78 | 2.59 | 7.28 | 2.6 | 7.93 | 3.35 | 12.1
7 | CCSC[C@@H]1C[C@](O)(c2ccc(Cl)cc2)[C@@H](c2ccc(Cl)cc2)O1 | 18.3 | 36.2 | 18.5 | 35.7 | 20.5 | 59.4 | 21.8 | 48.5 | 17.8 | 37.3 | 17.3 | 40.7 | 14.4 | 33.6 | 27.6 | 63.2
8 | COc1ccc(Nc2nc(NCCNc3ccnc4cc(Cl)ccc34)nc(N3CCOCC3)n2)cc1 | 3.1 | 15.4 | 5.02 | 19.5 | 2.95 | 15.4 | 2.86 | 12.8 | 3.89 | 18.3 | – | – | 3.47 | 13.4 | 4.17 | 17.5
9 | CCCc1nn(C)c2c(=O)[nH]c(-c3cc(S(=O)(=O)N4CCN(C)CC4)ccc3OCC)nc12 | > 100 | > 100 | > 100 | > 100 | > 100 | > 100 | > 100 | > 100 | > 100 | > 100 | > 100 | > 100 | > 100 | > 100 | > 100 | > 100
10 | COc1ccc2c(c1)c(-c1nc(-c3cn(C)c4ccncc34)cs1)cn2C | 1.85 | 3.4 | 2.07 | 4.4 | 2.15 | 6.05 | 1.7 | 3.34 | 1.83 | 3.75 | 1.77 | 3.56 | 1.96 | 3.73 | 1.8 | 3.26
11 | O=C1c2c(c(=O)[nH]c3ccccc23)[C@H](c2ccccc2)[C@@H]2CCCN12 | 3.37 | 18.3 | 3.68 | 23 | 4.61 | > 100 | 2.57 | 9.38 | 2.05 | 13.8 | 13.5 | 55.8 | 3.38 | > 100 | 17.6 | 68.2
12 | COc1ccc2cc(-c3cnc4nonc4n3)ccc2c1 | 3.21 | 37.3 | 8.59 | > 100 | 1.62 | > 100 | 0.415 | > 100 | 6.43 | > 100 | 0.83 | > 100 | 1.25 | > 100 | 2.83 | > 100
13 | COc1ccc(C(=O)/C=C/c2ccc(OCCCCCCCCCCOc3ccc(/C=C/C(=O)c4ccc(OC)cc4)cc3)cc2)cc1 | – | > 100 | – | > 100 | – | > 100 | – | > 100 | – | > 100 | – | > 100 | – | > 100 | – | > 100
14 | O=C1c2ccccc2C(=O)N1CCc1ncc(-c2ccccc2)[nH]1 | – | > 100 | – | > 100 | – | > 100 | – | > 100 | – | > 100 | – | > 100 | – | > 100 | – | > 100
15 | CCOC(=O)C(=Cc1ccc(C#N)cc1)C(=O)OCC | 2.15 | 4.89 | 2.29 | 7.57 | 3 | 9.32 | 2.07 | 7.61 | 2.51 | 6.33 | 4.83 | 17.6 | 2.1 | 4.72 | 2.12 | 5.37
16 | Cc1ccc(OP(=O)(Oc2ccc(C)cc2)N2C=Cc3ccccc3C2C#N)cc1 (stereo not drawn) | – | > 100 | – | > 100 | – | > 100 | – | > 100 | – | > 100 | – | > 100 | – | > 100 | – | > 100
17 | [N-]=[N+]=NCN1C(=O)C2C3C=CC(C2C1=O)C1C2C(=O)N(CN=[N+]=[N-])C(=O)C2C31 (stereo not drawn) | – | – | – | > 100 | – | – | – | > 100 | – | – | – | > 100 | – | > 100 | – | > 100
